Where “and” joins values, the source holds several entries; their conditions need not be identical. Equal values may be shown once.

For this test, the system named is 186277-243-T-J2-PDC complex spheroid viability. In words: Anticancer human tumor 186277-243-T-J2-PDC patient-derived colon adenocarcinoma cell line growth inhibition. Particulars: for viability, T/C: stronger effect = lower value. The method in brief: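 Multicellular complex spheroids of tumor cells with human endothelial cells (HUVEC) and mesenchymal stem cells; the LSD1 inhibitor iadademstat was combined with standard-of-care or investigational agents. Top concentration at or near clinical Cmax, half-log dilutions; final DMSO ≤0.25%.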

The mark [1] stands for this setting: curve of first compound, second compound 0.1 µM.
[2] abbreviates: curve of first compound, second compound 0.316 µM.
The mark [3] stands for this setting: curve of first compound, second compound 1 µM.
Setting [4] is: curve of first compound, second compound 3.16 µM.
The mark [5] stands for this setting: curve of first compound, second compound 10 µM.
Setting [6] is: second compound 0.1 µM, first compound 0.00949 µM.
Where [7] appears, read: second compound 0.1 µM, first compound 0.03 µM.
The mark [8] stands for this setting: second compound 0.1 µM, first compound 0.0949 µM.
[9] abbreviates: second compound 0.1 µM, first compound 0.3 µM.
Setting [10] is: second compound 0.1 µM, first compound 0.949 µM.
[11] abbreviates: second compound 0.1 µM, first compound 3 µM.
Setting [12] is: second compound 0.316 µM, first compound 0.00949 µM.
[13] abbreviates: second compound 0.316 µM, first compound 0.03 µM.
Setting [14] is: second compound 0.316 µM, first compound 0.0949 µM.
The mark [15] stands for this setting: second compound 0.316 µM, first compound 0.3 µM.
Where [16] appears, read: second compound 0.316 µM, first compound 0.949 µM.
Where [17] appears, read: second compound 0.316 µM, first compound 3 µM.
Setting [18] is: second compound 1 µM, first compound 0.00949 µM.
The mark [19] stands for this setting: second compound 1 µM, first compound 0.03 µM.
The mark [20] stands for this setting: second compound 1 µM, first compound 0.0949 µM.
[21] abbreviates: second compound 1 µM, first compound 0.3 µM.
[22] abbreviates: second compound 1 µM, first compound 0.949 µM.
The mark [23] stands for this setting: second compound 1 µM, first compound 3 µM.
Where [24] appears, read: second compound 3.16 µM, first compound 0.00949 µM.
Where [25] appears, read: second compound 3.16 µM, first compound 0.03 µM.
Setting [26] is: second compound 3.16 µM, first compound 0.0949 µM.
[27] abbreviates: second compound 3.16 µM, first compound 0.3 µM.
[28] abbreviates: second compound 3.16 µM, first compound 0.949 µM.
[29] abbreviates: second compound 3.16 µM, first compound 3 µM.
Where [30] appears, read: second compound 10 µM, first compound 0.00949 µM.
Where [31] appears, read: second compound 10 µM, first compound 0.03 µM.
Where [32] appears, read: second compound 10 µM, first compound 0.0949 µM.
[33] abbreviates: second compound 10 µM, first compound 0.3 µM.
Setting [34] is: second compound 10 µM, first compound 0.949 µM.
The mark [35] stands for this setting: second compound 10 µM, first compound 3 µM.
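Also: 7 day exposure to compounds.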
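For viability, T/C in this document: 100% = DMSO vehicle control viability.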

Turning to `Nc1ncn(C2CC(O)C(CO)O2)c(=O)n1` (stereo unspecified), the viability, T/C – broadly, the ratio of treated to control – is, setting by setting: (compound 0.00316 µM) 93.4% and 108%; (compound 0.01 µM) 102% and 99.4%; (compound 0.0316 µM) 97.3% and 94.3%; (compound 0.1 µM) 113% and 112%; (compound 0.316 µM) 113% and 133%; (compound 1 µM) 104% and 141%. In addition, where the note is “curve of compound”, the IC50 (as a rule, the concentration needed to halve the response being measured) was over 1000 nM.
In the case of `NC1CC1c1ccc(-c2cccc(O)c2)cc1` (stereo unspecified), the viability, T/C was 101% (compound 0.1 µM), 102% [middle of 25 runs] (compound 0.316 µM) and 107% [middle of 25 runs] (compound 3.16 µM). For the setting “compound alone, run of 02/01/2022”, the IC50 is over 10000 nM.
Take `Nc1ccccc1NC(=O)c1ccc(CNC(=O)OCc2cccnc2)cc1` + NC1CCC(NC2CC2c2ccccc2)CC1: the IC50 is, setting by setting: under setting [1], 1410 nM; under setting [2], 1400 nM; under setting [3], 1520 nM; under setting [4], 1380 nM; under setting [5], 1390 nM. The viability, T/C reads like this: under setting [6], 112%; under setting [7], 96.2%; under setting [8], 95.3%; under setting [9], 110%; under setting [10], 69.6%; under setting [11], 12.5%. Further, the viability, T/C reads like this: under setting [12], 112%; under setting [13], 113%; under setting [14], 109%; under setting [15], 96.5%; under setting [16], 68.7%; under setting [17], 13.5%. Further, the viability, T/C reads like this: under setting [18], 112%; under setting [19], 113%; under setting [20], 92.8%; under setting [21], 107%; under setting [22], 74.9%; under setting [23], 13.7%. For the same compound, the viability, T/C under setting [24] was 118%; the viability, T/C under setting [25] was 113%; the viability, T/C under setting [26] was 106%; the viability, T/C under setting [27] was 108%; the viability, T/C under setting [28] was 67.6%; the viability, T/C under setting [29] was 12.8%. For the same compound, the viability, T/C is 106% under setting [30]; 98.7% under setting [31]; 103% under setting [32]; 93.4% under setting [33]; 71.1% under setting [34]; 8.04% under setting [35].
With `CCc1c2c(nc3ccc(O)cc13)-c1cc3c(c(=O)n1C2)COC(=O)[C@]3(O)CC` + NC1CC1c1ccc(-c2cccc(O)c2)cc1, the IC50 under setting [1] was under 0.949 nM; the IC50 under setting [2] was under 0.949 nM; the 50% inhibitory concentration (IC50) under setting [3] was under 0.949 nM; the IC50 under setting [4] was under 0.949 nM; the half-inhibitory concentration (IC50) under setting [5] was under 0.949 nM. Further, the viability, T/C by setting is: (second compound 0.1 µM, first compound 0.000949 µM) 41.8%; (second compound 0.1 µM, first compound 0.003 µM) 30.3%; under setting [6], 21.5%; under setting [7], 3.91%; under setting [8], 1.18%; under setting [9], 0.24%. Besides, the viability, T/C is 43.1% (second compound 0.316 µM, first compound 0.000949 µM); 29.9% (second compound 0.316 µM, first compound 0.003 µM); 22.4% under setting [12]; 3.45% under setting [13]; 0.15% under setting [14]; 0.17% under setting [15]. Besides, the viability, T/C runs as follows: (second compound 1 µM, first compound 0.000949 µM) 42.2%; (second compound 1 µM, first compound 0.003 µM) 28.3%; under setting [18], 24.3%; under setting [19], 3.43%; under setting [20], 0.22%; under setting [21], 0.17%. Moreover, the viability, T/C reads like this: (second compound 3.16 µM, first compound 0.000949 µM) 42.7%; (second compound 3.16 µM, first compound 0.003 µM) 29%; under setting [24], 24%; under setting [25], 3.34%; under setting [26], 0.22%; under setting [27], 0.16%. The viability, T/C (second compound 10 µM, first compound 0.000949 µM) was 35.4%; the viability, T/C (second compound 10 µM, first compound 0.003 µM) was 23.4%; the viability, T/C under setting [30] was 17.3%; the viability, T/C under setting [31] was 1.73%; the viability, T/C under setting [32] was 0.19%; the viability, T/C under setting [33] was 0.23%.
As to `O=C(C=Cc1cccc(S(=O)(=O)Nc2ccccc2)c1)NO` + NC1CCC(NC2CC2c2ccccc2)CC1, the IC50 under setting [1] was 289 nM; the IC50 under setting [2] came out at 290 nM; the 50% inhibitory concentration (IC50) under setting [3] worked out at 294 nM; the half-maximal inhibitory concentration (IC50) under setting [4] amounted to 305 nM; the IC50 under setting [5] is 285 nM. Further, the viability, T/C by setting is: under setting [6], 109%; under setting [7], 114%; under setting [8], 121%; under setting [9], 47.7%; under setting [10], 20.5%; under setting [11], 5.16%. Further, the viability, T/C reads like this: under setting [12], 116%; under setting [13], 110%; under setting [14], 109%; under setting [15], 47%; under setting [16], 15.7%; under setting [17], 2.43%. The viability, T/C reads like this: under setting [18], 113%; under setting [19], 105%; under setting [20], 104%; under setting [21], 47.1%; under setting [22], 16.6%; under setting [23], 2.3%. For the same compound, the viability, T/C was 99.7% under setting [24]; 92% under setting [25]; 113% under setting [26]; 50.6% under setting [27]; 16% under setting [28]; 1.48% under setting [29]. Also, the viability, T/C under setting [30] was 104%; the viability, T/C under setting [31] is 102%; the viability, T/C under setting [32] was 113%; the viability, T/C under setting [33] was 47.3%; the viability, T/C under setting [34] was 15%; the viability, T/C under setting [35] is 1.31%.

(Values after PubChem BioAssay AID1918933 (Molecular Pharmacology Branch, DTP, NCI, 2023).)
